Assay results reported in paper PMC5990611, “An in Vitro Assay of hERG K^+ Channel Potency for a New EGFR Inhibitor FHND004” (Frontiers in Pharmacology, 2018).

Experiment: In vivo pharmacokinetic assay in male SD rats
Settings: rat, serum, data not shown, read-out: maximum serum concentration (Cmax)

With `C=CC(=O)Nc1cc(Nc2nccc(-c3cn(C)c4ccccc34)n2)c(OC)cc1N(C)CCN(C)C` [AZD9291] the Cmax was 220 nM.
